Test results reported in ChEMBL document CHEMBL3856212, “Synthesis, anti-proliferative and genotoxicity studies of 6-chloro-5-(2-substituted-ethyl)-1,3-dihydro-2H-indol-2-ones and 6-chloro-5-(2-chloroethyl)-3-(alkyl/ary-2-ylidene)indolin-2-ones” (Eur J Med Chem, 2016).

Experiments:
[1] = Cytotoxicity against human M14 cells assessed as assessed as growth inhibition at 10^-5 M after 48 hrs by SRB assay relative to control; type: functional; conditions: M14, 48 h, read-out: GI
[2] = Cytotoxicity against human HCC2998 cells assessed as growth inhibition after 48 hrs by SRB assay; type: functional; conditions: HCC 2998, 48 h
[3] = Induction of apoptosis in mouse EAC cells at 250 uM after 24 hrs by acridine orange dye-based fluorescence microscopy (reference value: 0.66 +/- 0.33%); type: cell-based; conditions: ehrlich
[4] = Cytotoxicity against human U251 cells assessed as assessed as growth inhibition at 10^-5 M after 48 hrs by SRB assay relative to control; type: functional; conditions: U-251, 48 h, read-out: GI
[5] = Cytotoxicity against human MDA-MB-435 cells assessed as assessed as growth inhibition at 10^-5 M after 48 hrs by SRB assay relative to control; type: functional; conditions: MDA-MB-435, 48 h, read-out: GI
[6] = Cytotoxicity against human EKVX cells assessed as growth inhibition after 48 hrs by SRB assay; type: functional
[7] = Cytotoxicity against human UACC62 cells assessed as assessed as growth inhibition at 10^-5 M after 48 hrs by SRB assay relative to control; type: functional; conditions: UACC-62, 48 h, read-out: GI
[8] = Cytotoxicity against human SK-MEL-28 cells assessed as assessed as growth inhibition at 10^-5 M after 48 hrs by SRB assay relative to control; type: functional; conditions: SK-MEL-28, 48 h, read-out: GI
[9] = Cytotoxicity against human SNB19 cells assessed as assessed as growth inhibition at 10^-5 M after 48 hrs by SRB assay relative to control; type: functional; conditions: SNB-19, 48 h, read-out: GI
[10] = Cytotoxicity against human IGROV1 cells assessed as assessed as growth inhibition at 10^-5 M after 48 hrs by SRB assay relative to control; type: functional; conditions: IGROV-1, 48 h, read-out: GI
[11] = Cytotoxicity against human SK-MEL-2 cells assessed as assessed as growth inhibition at 10^-5 M after 48 hrs by SRB assay relative to control; type: functional; conditions: SK-MEL-2, 48 h, read-out: GI
[12] = Cytotoxicity against human NCI-H522 cells assessed as growth inhibition after 48 hrs by SRB assay; type: functional; conditions: NCI-H522, 48 h
[13] = Cytotoxicity against human RXF393 cells assessed as growth inhibition after 48 hrs by SRB assay; type: functional; conditions: RXF 393, 48 h
[14] = Cytotoxicity against human A498 cells assessed as growth inhibition after 48 hrs by SRB assay; type: functional; conditions: A498, 48 h
[15] = Cytotoxicity against human SKOV3 cells assessed as assessed as growth inhibition at 10^-5 M after 48 hrs by SRB assay relative to control; type: functional; conditions: SK-OV-3, 48 h, read-out: GI
[16] = Cytotoxicity against human BT549 cells assessed as assessed as growth inhibition at 10^-5 M after 48 hrs by SRB assay relative to control; type: functional; conditions: BT-549, 48 h, read-out: GI
[17] = Cytotoxicity against human UACC257 cells assessed as growth inhibition after 48 hrs by SRB assay; type: functional; conditions: UACC-257, 48 h
[18] = Cytotoxicity against human MDA-MB-231 cells assessed as assessed as growth inhibition at 10^-5 M after 48 hrs by SRB assay relative to control; type: functional; conditions: MDA-MB-231, 48 h, read-out: GI
[19] = Cytotoxicity against human OVCAR3 cells assessed as growth inhibition after 48 hrs by SRB assay; type: functional; conditions: OVCAR-3, 48 h
[20] = Cytotoxicity against human SK-MEL-2 cells assessed as growth inhibition after 48 hrs by SRB assay; type: functional; conditions: SK-MEL-2, 48 h
[21] = Cytotoxicity against human NCI-H23 cells assessed as growth inhibition after 48 hrs by SRB assay; type: functional; conditions: NCI-H23, 48 h
[22] = Cytotoxicity against human HT-29 cells assessed as assessed as growth inhibition at 10^-5 M after 48 hrs by SRB assay relative to control; type: functional; conditions: HT-29, 48 h, read-out: GI
[23] = Cytotoxicity against human NCI-H522 cells assessed as assessed as growth inhibition at 10^-5 M after 48 hrs by SRB assay relative to control; type: functional; conditions: NCI-H522, 48 h, read-out: GI
[24] = Cytotoxicity against human SNB75 cells assessed as growth inhibition after 48 hrs by SRB assay; type: functional; conditions: SNB-75, 48 h
[25] = Cytotoxicity against human OVCAR5 cells assessed as growth inhibition after 48 hrs by SRB assay; type: functional; conditions: OVCAR-5, 48 h
[26] = Cytotoxicity against human A549 cells assessed as assessed as growth inhibition at 10^-5 M after 48 hrs by SRB assay relative to control; type: functional; conditions: A549, 48 h, read-out: GI
[27] = Cytotoxicity against human HCT116 cells assessed as growth inhibition after 48 hrs by SRB assay; type: functional; conditions: HCT-116, 48 h
[28] = Cytotoxicity against human K562 cells assessed as growth inhibition after 48 hrs by SRB assay; type: functional; conditions: K562, 48 h
[29] = Cytotoxicity against human OVCAR4 cells assessed as growth inhibition after 48 hrs by SRB assay; type: functional; conditions: OVCAR-4, 48 h
[30] = Cytotoxicity against human MDA-MB-231 cells assessed as growth inhibition after 48 hrs by SRB assay; type: functional; conditions: MDA-MB-231, 48 h
[31] = Cytotoxicity against human MCF7 cells assessed as assessed as growth inhibition at 10^-5 M after 48 hrs by SRB assay relative to control; type: functional; conditions: MCF7, 48 h, read-out: GI
[32] = Cytotoxicity against human Hs 578T cells assessed as growth inhibition after 48 hrs by SRB assay; type: functional
[33] = Cytotoxicity against human TK10 cells assessed as assessed as growth inhibition at 10^-5 M after 48 hrs by SRB assay relative to control; type: functional; conditions: TK-10, 48 h, read-out: GI
[34] = read-out: LD50 (the source's name)

**Q.** With O=C1Cc2cc(CCn3cncn3)c(Cl)cc2N1 as the compound, how does the inhibition of growth at 10 µM [1] read?
**A.** Its inhibition of growth at 10 µM is 76%.

**Q.** And the GI50 [2]?
**A.** Its GI50 is 1000 nM.

**Q.** What about the TGI [2] of the same compound?
**A.** The TGI was greater than 1000 nM.

**Q.** What about the CC50 [2, 34] of the same compound?
**A.** The CC50 was greater than 1000 nM.

**Q.** What about the Activity [3] of the same compound?
**A.** Its Activity is 0.63%.

**Q.** What about the inhibition of growth at 10 µM [4] of the same compound?
**A.** Its inhibition of growth at 10 µM is 26.6%.

**Q.** And the inhibition of growth at 10 µM [5]?
**A.** Its inhibition of growth at 10 µM is 65.6%.

**Q.** And the GI50 [6]?
**A.** Its GI50 is 8250 nM.

**Q.** What about the TGI [6] of the same compound?
**A.** Its TGI is greater than 1000 nM.

**Q.** What about the CC50 [6, 34] of the same compound?
**A.** The CC50 was greater than 1000 nM.

**Q.** What about the inhibition of growth at 10 µM [7] of the same compound?
**A.** Its inhibition of growth at 10 µM is 31.8%.

**Q.** And the inhibition of growth at 10 µM [8]?
**A.** Its inhibition of growth at 10 µM is 32.8%.

**Q.** And the inhibition of growth at 10 µM [9]?
**A.** The inhibition of growth at 10 µM was 25.6%.

**Q.** And the inhibition of growth at 10 µM [10]?
**A.** Its inhibition of growth at 10 µM is 15.3%.

**Q.** And the inhibition of growth at 10 µM [11]?
**A.** Its inhibition of growth at 10 µM is 28.7%.

**Q.** And the GI50 [12]?
**A.** Its GI50 is 5290 nM.

**Q.** What about the TGI [12] of the same compound?
**A.** Its TGI is greater than 1000 nM.

**Q.** What about the CC50 [12, 34] of the same compound?
**A.** The CC50 was greater than 1000 nM.

**Q.** And the GI50 [13]?
**A.** Its GI50 is 7480 nM.

**Q.** What about the TGI [13] of the same compound?
**A.** Its TGI is greater than 1000 nM.

**Q.** And the CC50 [13, 34]?
**A.** Its CC50 is greater than 1000 nM.

**Q.** And the GI50 [14]?
**A.** Its GI50 is 3250 nM.

**Q.** What about the TGI [14] of the same compound?
**A.** The TGI was greater than 1000 nM.

**Q.** And the CC50 [14, 34]?
**A.** Its CC50 is greater than 1000 nM.

**Q.** And the inhibition of growth at 10 µM [15]?
**A.** Its inhibition of growth at 10 µM is 20.7%.

**Q.** And the inhibition of growth at 10 µM [16]?
**A.** Its inhibition of growth at 10 µM is 32%.

**Q.** And the GI50 [17]?
**A.** Its GI50 is 7140 nM.

**Q.** What about the TGI [17] of the same compound?
**A.** The TGI was greater than 1000 nM.

**Q.** What about the CC50 [17, 34] of the same compound?
**A.** The CC50 was greater than 1000 nM.

**Q.** And the inhibition of growth at 10 µM [18]?
**A.** Its inhibition of growth at 10 µM is 44%.

**Q.** And the GI50 [19]?
**A.** The GI50 was 1000 nM.

**Q.** And the TGI [19]?
**A.** The TGI was greater than 1000 nM.

**Q.** What about the CC50 [19, 34] of the same compound?
**A.** The CC50 was greater than 1000 nM.

**Q.** And the GI50 [20]?
**A.** The GI50 was 1240 nM.

**Q.** And the TGI [20]?
**A.** The TGI was greater than 1000 nM.

**Q.** What about the CC50 [20, 34] of the same compound?
**A.** The CC50 was greater than 1000 nM.

**Q.** And the GI50 [21]?
**A.** Its GI50 is 1000 nM.

**Q.** What about the TGI [21] of the same compound?
**A.** Its TGI is greater than 1000 nM.

**Q.** And the CC50 [21, 34]?
**A.** The CC50 was greater than 1000 nM.

**Q.** What about the inhibition of growth at 10 µM [22] of the same compound?
**A.** The inhibition of growth at 10 µM was 2.85%.

**Q.** What about the inhibition of growth at 10 µM [23] of the same compound?
**A.** The inhibition of growth at 10 µM was 67.2%.

**Q.** And the GI50 [24]?
**A.** Its GI50 is 1320 nM.

**Q.** And the TGI [24]?
**A.** Its TGI is greater than 1000 nM.

**Q.** And the CC50 [24, 34]?
**A.** Its CC50 is greater than 1000 nM.

**Q.** And the GI50 [25]?
**A.** Its GI50 is 1000 nM.

**Q.** And the TGI [25]?
**A.** Its TGI is greater than 1000 nM.

**Q.** And the CC50 [25, 34]?
**A.** Its CC50 is greater than 1000 nM.

**Q.** What about the inhibition of growth at 10 µM [26] of the same compound?
**A.** The inhibition of growth at 10 µM was 40.2%.

**Q.** What about the GI50 [27] of the same compound?
**A.** The GI50 was 3200 nM.

**Q.** And the TGI [27]?
**A.** The TGI was greater than 1000 nM.

**Q.** What about the CC50 [27, 34] of the same compound?
**A.** The CC50 was greater than 1000 nM.

**Q.** What about the GI50 [28] of the same compound?
**A.** Its GI50 is 7680 nM.

**Q.** And the TGI [28]?
**A.** The TGI was greater than 1000 nM.

**Q.** What about the CC50 [28, 34] of the same compound?
**A.** The CC50 was greater than 1000 nM.

**Q.** And the GI50 [29]?
**A.** Its GI50 is 1000 nM.

**Q.** And the TGI [29]?
**A.** The TGI was greater than 1000 nM.

**Q.** What about the CC50 [29, 34] of the same compound?
**A.** The CC50 was greater than 1000 nM.

**Q.** What about the GI50 [30] of the same compound?
**A.** The GI50 was 4660 nM.

**Q.** What about the TGI [30] of the same compound?
**A.** The TGI was greater than 1000 nM.

**Q.** What about the CC50 [30, 34] of the same compound?
**A.** The CC50 was greater than 1000 nM.

**Q.** And the inhibition of growth at 10 µM [31]?
**A.** Its inhibition of growth at 10 µM is 71%.

**Q.** What about the GI50 [32] of the same compound?
**A.** The GI50 was 7200 nM.

**Q.** And the TGI [32]?
**A.** Its TGI is greater than 1000 nM.

**Q.** What about the CC50 [32, 34] of the same compound?
**A.** Its CC50 is greater than 1000 nM.

**Q.** And the inhibition of growth at 10 µM [33]?
**A.** Its inhibition of growth at 10 µM is -21.7%.
